Article PMC9779727, “Identification of Novel Artemisinin Hybrids Induce Apoptosis and Ferroptosis in MCF-7 Cells” (International Journal of Molecular Sciences, 2022)

Columns and labels:
lung cancer A549 cells = assay: MTT antiproliferation assay, A549; format: cell-based, human; conditions: 48 h, means ± SD, n = 3
From the text: (§1) The target hybrids A1–A15 were screened for their antiproliferation activities against five human cancer cell lines (lung cancer A549 cells, breast cancer MCF-7 and MDA-MB-231 cells, colon cancer HCT116 cells and ovarian cancer SK-OV-3 cells) in vitro by the standard MTT method, and 5-fluorouracil (5-FU) and ART were coassayed as controls. […] Therefore, the most promising hybrid, A8, was chosen for further exploration of the preliminary mechanism of MCF-7 cell antiproliferation.
(§2) Cytotoxicity of test compounds against five different tumor cell lines were evaluated using an MTT assay in vitro. Cells were seeded into 96-well plates at a density of 5 × 10^4 cells per well and stabilized at 37 °C with 5% CO2 for 24 h. Compounds A1–A15, ART and 5-FU were added to each well at various concentrations and then the cells were incubated for 48 h. The MTT solution (100 μL 0.5 mg/mL^−1) was added to each well, and the cells were incubated for another 4 h. Then, 150 μL DMSO was added to each well and the absorbance of samples was measured at 492 nm. The IC50 values were calculated according to Logit method after getting the inhibitory rate.

[1] = tested on: colon cancer HCT116 cells; assay: MTT antiproliferation assay, HCT116; format: cell-based, human; conditions: 48 h, means ± SD, n = 3
From the text: as §1, §2

MCF-7 cells [2] = assay: TUNEL staining; format: cell-based, human; conditions: MCF-7, varying concentrations
Experimental: To investigate whether hybrid A8 exerts an antitumor effect on MCF-7 cells by inducing apoptosis, an annexin V-FITC/PI binding assay was performed. MCF-7 cells were treated with vehicle or various concentrations (2.5, 5 and 10 μM) of hybrid A8 for 48 h and were then stained with FITC-annexin V and propidium iodide (PI). The percentages of apoptotic MCF-7 cells were determined by flow cytometry. A8-induced apoptosis in a dose-dependent manner. The percentages of total apoptotic cells (Q1-UR + Q1-LR) were 17.99% (2.5 μM), 35.98% (5 μM) and 48.65% (10 μM). […] In addition, obvious changes in cell morphology were also observed.
The slides were immersed in 4% paraformaldehyde (pH 7.4) for 25 min at room temperature and then washed with PBS 3 times. The cells were immersed in 0.1% Triton X-100 solution prepared with PBS for 10 min (operation on ice) and then washed twice with PBS. Dilute 5 × equilibration buffer with deionized water and 100 μL 1 × equilibration buffer was added to each climbing tablet to cover the sample area to be tested, then incubated at room temperature for 15 min. […] The water-absorbent paper was used to absorb the liquid on the climbing sheet, and the sealing liquid containing anti fluorescence quenching agent was used to seal the film, and then the images were observed and collected under the fluorescence microscope.

MCF-7 cells [3] = assay: JC-1 mitochondrial membrane potential assay; format: cell-based, human; conditions: 48 h, control 7.85%
Experimental: JC-1 staining was also performed to explore the change in mitochondrial membrane potential (MMP), which could induce apoptosis.
MCF-7 cells were plated at 1 × 10^6 cells per well in 24-well plates and incubated with compound A8 at various concentrations (0, 2.5, 5 and 10 μM) for 48 h. Subsequently, the cells were incubated with JC-1 dye and finally analyzed by flow cytometry (Beckman Coulter cytoFLEX, USA).

MCF-7 cells [4] = assay: Intracellular ROS generation (DCFH-DA, flow cytometry); format: cell-based, human; conditions: MCF-7, 0, 2.5, 5 and 10 μM, 48 h
Experimental: First, we detected ROS levels using DFCH-DA.
ROS production was detected by using the peroxide-sensitive fluorescent probe DCFH-DA. After treatment with different concentrations of A8 for 48 h, the cells were incubated with 10 μg/mL DCFH-DA at 37 °C for 20 min. Then, cells were harvested. Samples were analyzed by flow cytometry (FACS Calibur, Becton-Dickinson, East Rutherford, NJ, USA).

GPX4 = assay: Western blotting, GPX4 expression; format: cell-based, human; conditions: MCF-7, 0, 2.5, 5 and 10 μM, 48 h
Experimental: We examined the effect of A8 on the expression of GPX4 as well, which is vital in preventing ferroptosis. […] Thus, we concluded that A8 induced the accumulation of ROS and lipid peroxidation and suppressed GSH levels and the expression of GPX4, thereby leading to the induction of ferroptosis.
MCF-7 cells were seeded at a density of 4 × 10^5 cells per well and treated with various concentrations of compound A8 (0, 2.5, 5 and 10 μM) for 48 h. After this, cells were collected and washed twice with ice-cold DPBS. The pellets were resuspended in a total protein extraction buffer (20 mM HEPES, 350 mM NaCl, 20% glycerol, 1% NP-40, 1 mM MgCl2, 0.5 mM EDTA, 0.1 mM EGTA, 0.1 mM DTT, 0.1 mM PMSF) containing a protease inhibitor cocktail and incubated on ice for 30 min with intermittent mixing. The protein concentration was measured using the Bradford reagent (Bio-Rad Laboratories Inc., Hercules, CA, USA). An equal amount (20 μg) of protein was loaded on 10% polyacrylamide gels and transferred to a nitrocellulose membrane. After blocking with 5% skimmed milk, the membrane was incubated at 4 °C overnight with specific primary antibodies. The membrane was washed and incubated at room temperature for 1 h with secondary antibodies conjugated with horseradish peroxidase (HRP). Finally, the immunoblot was developed for visualization using a chemiluminescence kit. […]

CYP2C9 = molecular target: T1, CYP2C9 (Homo sapiens, UniProt P11712); assay: CYPs inhibition assay, CYP2C9; format: in vitro ADME; conditions: human liver microsomes
T1 construct: from tissue; host or cells: human liver microsomes
Experimental: Finally, we evaluated the interaction between the hybrid A8 and five major metabolic enzymes (CYP1A2, CYP2C9, CYP2C19, CYP2D6 and CYP3A4) in the human body. […] It is also one of the directions for our further transformation and optimization.
Cytochrome P450 inhibition was evaluated in human liver microsomes (0.253 mg/mL) using five […] (CYP1A2, α-Naphthoflavone; CYP2C9, Sulfaphenazole; CYP2C19, Benzylnirvanol; CYP2D6, Quinidine; and CYP3A4, Ketoconazole.) in the presence of compound A8 (10 μM). After preincubation for 10 min at 37 °C, an NADPH-regenerating system was added. After the mixed system was incubated for 15 min at 37 °C, the reaction was stopped by adding 400 μL of cold stop solution (200 ng/mL tolbutamide and 200 ng/mL labetalol in acetonitrile). Then, the mixture was centrifuged, and the supernatant was analyzed by LC-MS/MS.

T1 sequence (P11712 whole entry): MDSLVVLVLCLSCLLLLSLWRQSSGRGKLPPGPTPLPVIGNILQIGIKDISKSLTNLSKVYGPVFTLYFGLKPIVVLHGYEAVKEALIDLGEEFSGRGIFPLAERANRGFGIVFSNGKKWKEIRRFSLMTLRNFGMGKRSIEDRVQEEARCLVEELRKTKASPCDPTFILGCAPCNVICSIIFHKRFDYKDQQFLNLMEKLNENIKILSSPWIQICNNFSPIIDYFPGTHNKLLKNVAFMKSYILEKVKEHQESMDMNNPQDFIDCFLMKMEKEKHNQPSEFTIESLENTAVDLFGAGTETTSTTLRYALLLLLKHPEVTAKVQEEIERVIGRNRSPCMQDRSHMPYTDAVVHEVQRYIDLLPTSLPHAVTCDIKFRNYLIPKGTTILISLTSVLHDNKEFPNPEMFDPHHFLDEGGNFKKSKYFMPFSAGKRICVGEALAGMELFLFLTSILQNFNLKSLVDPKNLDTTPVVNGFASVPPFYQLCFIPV

CC1CCC2C(C)C(OC(=O)CCC(=O)NCc3nnc(Nc4ccc(F)cc4F)o3)OC3OC4(C)CCC1C32OO4 (stereo not drawn) [A8]
IC50 (lung cancer A549 cells): 7.7 ± 0.36 µM
IC50 [1]: 9.71 ± 0.37 µM
number of cells that emitted red fluorescence (apoptotic cells), TUNEL (in words) (MCF-7 cells [2]): increased as the administration concentration increased
proportion of MCF-7 cells with depolarized mitochondria (Q1-LR) (MCF-7 cells [3]; 2.5 μM): 19.45%
proportion of MCF-7 cells with depolarized mitochondria (Q1-LR) (MCF-7 cells [3]; 5 μM): 36.90%
proportion of MCF-7 cells with depolarized mitochondria (Q1-LR) (MCF-7 cells [3]; 10 μM): 48.70%
ROS fluorescence intensity (in words) (MCF-7 cells [4]): increased significantly with increasing drug concentration
GPX4 expression (in words) (GPX4): dose-dependent inhibition of GPX4 expression
Inhibition at 10 μM (%) CYP2C9 (CYP2C9): 6.4%
